Here are results for one compound from PubChem BioAssay (NCI).

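Growth conditions: 96-well plates. Treatment: test compound, 48 hours, 5 concentrations. Analysis: linear interpolation between bracketing concentrations; unreached endpoints set to highest concentration. The concentration for 50% growth inhibition is given as GI50. TGI: concentration producing complete growth inhibition.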

Some test systems named below: SNB-19 CNS; M14 melanoma; A498 renal; SK-MEL-2 melanoma; SN12C renal; UACC-62 melanoma; SR leukemia; NCI-H522 lung; HCT-15 colon; SNB-75 CNS.
Test in all cases: NCI tumour cell line growth inhibition, 48 h

In the case of `O=C1c2ccccc2-c2c1c1ccccc1c(=O)n2CCCNCCCn1c2c(c3ccccc3c1=O)C(=O)c1ccccc1-2`, the GI50 in the experiment with SNB-19 CNS is 6.83 µM; in the experiment with M14 melanoma, 9.15 µM; in the experiment on A498 renal, 8.97 µM; in the experiment with SK-MEL-2 melanoma, 22.7 µM; with SN12C renal, 3.4 µM; in the experiment on UACC-62 melanoma it was 7.52 µM. The GI50 was 14.3 µM in the experiment on SR leukemia, 13.7 µM in the experiment with NCI-H522 lung, 1.03 µM in the experiment with HCT-15 colon and 6.1 µM in the experiment with SNB-75 CNS. The TGI is greater than 40.5 µM in the experiment with SNB-19 CNS; 30.4 µM with M14 melanoma; 17.4 µM in the experiment with A498 renal; greater than 50 µM in the experiment with SK-MEL-2 melanoma; 14.9 µM in the experiment with SN12C renal; 16.4 µM in the experiment on UACC-62 melanoma. For the same compound, the TGI in the experiment on SR leukemia is greater than 50 µM; with NCI-H522 lung, greater than 50 µM; with HCT-15 colon, 3.81 µM; in the experiment on SNB-75 CNS, greater than 50 µM.
